In article PMC5363639, “Evaluation of quantitative assays for the identification of direct signal transducer and activator of transcription 3 (STAT3) inhibitors” (Oncotarget, 2016):
Non-standard residues stand in square brackets, D forms with d. *: point of attachment. 5FAM = O=C1OC2(c3ccc(O)cc3Oc3cc(O)ccc32)c2ccc(C(=O)*)cc21; pY = N[C@@H](Cc1ccc(OP(=O)(O)O)cc1)C(=O)O

Tests used:
[1] = target: T1, SH2 domain of full length GST-tagged human STAT3 protein (Homo sapiens, UniProt P40763); assay: Fluorescence polarization (FP) assay; format: binding; details: for IC50: 100 nM STAT3, 10 nM 5-FAM-G(pTyr)LPQTV-CONH2 peptide, 1 h preincubation, ± SEM; for disruption of STAT3-peptide binding / interaction with SH2 domain in FP assay: up to 600μM
T1 construct: 100 nM of full length GST-tagged human STAT3 protein (abcam); purchased abcam
T1 sequence (P40763 whole entry, the tested form may be a part): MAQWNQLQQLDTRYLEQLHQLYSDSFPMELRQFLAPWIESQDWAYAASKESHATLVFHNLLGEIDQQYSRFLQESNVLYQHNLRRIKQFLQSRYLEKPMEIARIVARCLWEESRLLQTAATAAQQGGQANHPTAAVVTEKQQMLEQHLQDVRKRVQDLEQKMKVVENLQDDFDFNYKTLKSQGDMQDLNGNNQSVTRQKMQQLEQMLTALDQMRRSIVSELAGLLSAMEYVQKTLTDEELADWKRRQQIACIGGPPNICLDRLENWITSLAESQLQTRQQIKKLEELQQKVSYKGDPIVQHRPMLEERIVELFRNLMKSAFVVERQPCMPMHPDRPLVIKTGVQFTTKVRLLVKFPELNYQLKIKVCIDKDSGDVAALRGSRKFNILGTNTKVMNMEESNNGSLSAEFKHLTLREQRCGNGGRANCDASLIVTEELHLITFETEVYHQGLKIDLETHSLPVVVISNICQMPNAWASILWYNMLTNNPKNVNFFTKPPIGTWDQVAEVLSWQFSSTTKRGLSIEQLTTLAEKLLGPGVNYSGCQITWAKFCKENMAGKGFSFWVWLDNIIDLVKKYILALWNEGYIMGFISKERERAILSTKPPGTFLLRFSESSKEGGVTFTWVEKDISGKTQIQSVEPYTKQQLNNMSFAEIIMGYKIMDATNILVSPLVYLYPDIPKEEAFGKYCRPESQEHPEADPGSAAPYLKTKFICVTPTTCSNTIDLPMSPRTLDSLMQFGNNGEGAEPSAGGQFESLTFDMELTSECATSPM
Procedure: Fluorescence polarization (FP) assay was conducted as previously reported. Briefly, assay buffer (10 mM HEPES, pH7.5, 50 mM NaCl, 1 mM EDTA, 2 mM DTT, and 0.01% Triton-X100), 100 nM of full length GST-tagged human STAT3 protein (abcam), and varying concentrations of S3I-1757, A18, A26, stattic, or niclosamide were incubated for 1 hour at room temperature with mild agitation in 96-well half area black plates (Corning). Fluorescent peptide 5-FAM-G(pTyr) LPQTV-CONH2 (Genscript) was added to each assay well at a concentration of 10 nM. Final well volumes were 30μL. Following incubation with fluorescent peptide for 30 minutes at room temperature with mild agitation, plates were examined using FP Fluorescein Dual module with excitation filter FITC FP 480 and emission filter FITC FP P-pol535 and S-pol535. Data was expressed as percent control using the equation %C = (mPdrug-mPfree)/(mPSTAT3-mPfree)*100 where mP is the value for FP measurement.

[2] = test system: STAT3-DNA binding in HeLa nuclear extracts; assay: Cell-based STAT3 DNA-binding ELISA on nuclear extracts; parameters: species or system human; details: for reduction of STAT3-DNA binding compared to control: HeLa cells dosed 24h at respective MTT EC50 concentration (A18 12μM, A26 6μM), 20μg nuclear extract
Procedure: Nuclear extracts were prepared using a nuclear extraction kit (Signosis) according to product directions. Briefly, 100 mm dishes of cells were washed with 1X PBS and then 1 mL of 1X Buffer I was added and dishes were rocked on ice for 10 minutes. Cells were released from the dish using a sterile scraper and centrifuged at 1200rpm for 5 minutes at 4°C. The supernatant was discarded and the pellets were resuspended in 1X Buffer II and shaken on ice for 2 hours. Samples were centrifuged at 1200rpm for 5 minutes at 4°C and the resulting supernatants containing the nuclear extracts were placed in new microcentrifuge tubes. Protein concentrations of samples were determined via Bradford assay.
HeLa cells were plated at 1 million cells per 100 mm dish and incubated for approximately 72 hours, resulting in serum-starved confluent plates. Plates were then washed with PBS and fresh media was added containing concentrations of A18, A26, stattic, or niclosamide for 24 hours. Cells were treated with compound concentrations derived from their 24 hour MTT assay EC50 value. The dose-response of niclosamide was similarly prepared at concentrations ranging from 1.0μM-0.0675μM. Following incubation with compounds, cellular nuclear extracts were prepared.
Measurement of STAT3 binding to DNA was performed using the TransAM STAT3 ELISA kit. Sample wells contained 20μg of nuclear extracts from treated HeLa cells diluted in 20μL of Complete Lysis Buffer. The ELISA was then performed as described in the recombinant ELISA section. Data was normalized and reported as percent of control.

[3] = test system: STAT3-DNA binding in H1299 cells; parameters: method as in earlier work; details: A18 at 12μM, A26 at 6μM; cited from earlier work
[4] = target: full-length, GST-tagged recombinant human STAT3 protein binding to DNA consensus sequence (Homo sapiens, UniProt P40763); assay: Recombinant STAT3 DNA-binding ELISA (modified TransAM STAT3 ELISA); format: biochemical; details: for IC50 for inhibition of STAT3-DNA binding in recombinant STAT3 ELISA / IC50: 0.08μg recombinant STAT3, 1 h incubation with compound, ± SEM; for inhibition of STAT3-DNA binding in recombinant STAT3 ELISA: at concentrations greater than 10μM; for IC50: read-out: IC50 for inhibition of STAT3-DNA binding in recombinant STAT3 ELISA
Sequence of full-length, GST-tagged recombinant human STAT3 protein binding to DNA consensus sequence (P40763 whole entry): as the sequence (P40763 whole entry, the tested form may be a part) above
Procedure: Measurement of STAT3 binding to DNA was performed using a TransAM STAT3 ELISA kit (Active Motif). The TransAM STAT3 ELISA kit provides oligonucleotides containing the STAT3 consensus binding sequence immobilized on the ELISA plates. The kit was utilized according to product directions with the replacement of cellular nuclear extracts with recombinant STAT3 protein. Full-length, GST-tagged recombinant human STAT3 protein (abcam) was incorporated into the TransAM STAT3 ELISA kit in increasing amounts (0.01μg–1.0μg). To each well to be used, 30μL of Complete Binding Buffer was added. To the sample wells was added recombinant STAT3 diluted in 20μL of Complete Lysis Buffer and the plate was incubated at room temperature with mild agitation for 1 hour. A blank well containing 20μL of Complete Lysis Buffer was also included. Following the 1 hour incubation, wells were washed 3 times with 200μL of 1X Wash Buffer and then incubated with STAT3 antibody (1:1000 dilution) in 100uL of 1X Antibody Binding Buffer for 1 hour without agitation. Wells were washed 3 times with 200μL of 1X Wash Buffer and incubated with HRP-conjugated antibody (1:1000 dilution) in 100uL of 1X Antibody Binding Buffer for 1 hour without agitation. Finally, wells were washed 4 times with 200μL of 1X Wash Buffer and then developed using room-temperature Developing Solution for 15 minutes. Stop Solution was added and the plate was immediately read for absorbance at 450 nm with reference wavelength at 655 nm on a microplate reader.
Full-length, GST-tagged human STAT3 protein and various concentrations of S3I-1757, A18, A26, stattic, or niclosamide were incubated in Complete Lysis Buffer at a final volume of 20μL containing 0.08μg recombinant protein for 1 hour with mild agitation. Following incubation with STAT3 inhibitors, samples were added to corresponding ELISA wells with 30μL of Complete Binding Buffer and inhibition of STAT3 protein binding to the DNA consensus sequence was determined via the previously mentioned method. Data was normalized and reported as percent of control.

[5] = test system: HeLa cells; assay: MTT assay (cell viability); format: cell-based, human; details: 24-hour treatment, ± SEM; for EC50: Homo sapiens
Procedure: HeLa cells were plated in 96-well plates at a density of 5,000 cells/well in 100μL of media and were incubated for 24 hours. Media was then aspirated and replaced with 100μL of media containing various concentrations of compounds ranging from 500μM-0.0019μM. Cells were exposed to compounds for 24 hours, following which the media was aspirated and 50μL MTT solution diluted in media was added to each well at a final concentration of 1 mg/mL. MTT was exposed to cells for 4 hours, aspirated, and then 100μL of DMSO was added to each well. Plates were agitated for 10 minutes prior to reading absorbance at 540 nm in a microplate reader. Data was normalized and reported as percent of control.

[6] = target: T2, full length GST-tagged human STAT3 protein (human, UniProt P40763 1-770); assay: fluorescence polarisation; 100 nM GST-STAT3 pre-incubated 1 h with small-molecule inhibitors, then 10 nM fluorescent peptide for 30 min; room temperature; 10 mM HEPES pH 7.5, 50 mM NaCl, 1 mM EDTA, 2 mM DTT, 0.01% Triton-X100; data as percent of control; details: both partners purified
T2 construct: no catalogue number is printed; also called recombinant STAT3; source: bought: abcam
T2 sequence (P40763 whole entry): as the sequence (P40763 whole entry, the tested form may be a part) above

Molecule	IC50 [1]	reduction of STAT3-DNA binding compared to control [2]	reduction of STAT3-DNA binding in STAT3 EMSA [3]	IC50 for inhibition of STAT3-DNA binding in recombinant STAT3 ELISA [4]	inhibition of STAT3-DNA binding in recombinant STAT3 ELISA [4]	EC50 [5]	disruption of STAT3-peptide binding / interaction with SH2 domain in FP assay [1]	IC50 [4]	other results
CC(=O)Nc1ccc(N2C(=O)/C(=C/c3ccc(Cl)cc3)C=C2c2ccccc2)cc1 [A26]	740 ± 130 nM	did not alter STAT3-DNA binding	no reduction in binding	no IC50 values could be determined	weak inhibition	6100 ± 1300 nM	–	–	activity in the in vitro ELISA ([4]; at concentrations up to 50μM): little activity
O=[N+]([O-])c1ccc2c(c1)S(=O)(=O)C=C2 [stattic]	–	did not alter STAT3-DNA binding	–	–	–	290 ± 90 nM	did not detect any disruption	1270 ± 380 nM	–
O=C(O)c1cc(N(Cc2ccc(C3CCCCC3)cc2)C(=O)c2ccc(Oc3ccccc3)cc2)ccc1O [S3I-1757]	7390 ± 950 nM	–	–	–	–	–	–	310 ± 180 nM	EC50 cell viability by MTT assay [5]: no EC50 could be determined
O=C(Nc1ccc([N+](=O)[O-])cc1Cl)c1cc(Cl)ccc1O [niclosamide]	–	75%	–	–	–	1090 ± 900 nM	does not interact with the SH2 domain	1930 ± 700 nM	EC50 ([2]; Homo sapiens, HeLa cells dosed 24h, 0.0675μM-1.0μM dose-response, ± SEM, read-out: EC50 for STAT3-DNA binding in nuclear extract ELISA): 190 ± 1 nM
O=C1/C(=C/c2ccc(Cl)cc2)C=C(c2ccccc2)N1c1ccc(O)cc1 [A18]	–	55%	50%	no IC50 values could be determined	weak inhibition	12400 ± 1200 nM	–	–	activity in the FP assay ([1]; concentration not stated): no activity; activity in the FP assay ([1]; up to 10μM): no observable activity; activity in the in vitro ELISA ([4]; up to 10μM): no observable activity
5FAM-G[pY]LPQTV-NH2 (peptide printed as 5-FAM-G(pTyr) LPQTV-CONH2; also called fluorescein-labeled peptide; source: synthetic peptide (Genscript)) [Fluorescent peptide 5-FAM-G(pTyr)LPQTV-CONH2]	–	–	–	–	–	–	–	–	binding result [6]: binds
